{"source": "patent US20050074488A1", "about": "“Use of vitamin Ds to down regulate the renin-angiotensin-aldosterone system” (priority 2003, published 2005)", "key": {"PAI-1": {"test_system": "PAI-1", "assay": "Western blot of PAI-1 in primary culture of human coronary artery smooth muscle cells", "format": "cell-based"}, "renin mRNA expression": {"test_system": "renin mRNA expression", "assay": "Northern blot analysis of renin mRNA expression in As4.1-hVDR cells", "format": "cell-based", "method": "(§1) Using an in vitro system, an examination was carried out in order to determine the ability of paricalcitol to suppress renin expression. […] This inhibitory activity is confirmed by renin promoter-luciferase assays, which examine the activity of paricalcitol to suppress renin gene transcription."}, "renin gene promotor": {"test_system": "renin gene promotor", "assay": "renin promoter-luciferase assay", "format": "cell-based", "conditions": "FIG. 2", "method": "as §1"}, "24(OH)ase": {"test_system": "24(OH)ase", "assay": "effect of drugs on the expression of 24(OH)ase", "format": "cell-based", "method": "Two observations may be noted in these studies: (1) 100% inhibition of growth was never achieved even at 1 μM of any of the test compound. Confocal microscopy studies confirm that, although these drugs are potent in inducing the translocation of VDR from cytoplasm to nucleus, not all cells respond to VDRAs even after 2 h of exposure, which may explain the <100% inhibition."}, "[1]": {"conditions": "cited from earlier work"}}, "data": [{"smiles": "C=C1/C(=C\\C=C2/CCC[C@]3(C)[C@@H]([C@H](C)CCCC(C)(C)O)CC[C@@H]23)C[C@@H](O)C[C@@H]1O", "note": "[calcitriol]", "values": [{"measurement": "potency in reducing the PAI level", "setting": "PAI-1", "value": "equally potent"}]}, {"smiles": "C[C@H](/C=C/[C@H](C)C(C)(C)O)[C@H]1CC[C@H]2/C(=C/C=C3C[C@@H](O)C[C@H](O)C3)CCC[C@]12C", "note": "[paricalcitol]", "values": [{"measurement": "renin-inhibiting activity relative to calcitriol", "setting": "renin mRNA expression; FIG. 1A and B", "value": "a bit more potent than calcitriol"}, {"measurement": "inhibition of renin mRNA expression", "setting": "renin mRNA expression; Northern blot, FIG. 1", "value": "dose-dependently inhibits renin mRNA expression"}, {"measurement": "suppressing the activity of the renin gene promotor, relative to calcitriol", "setting": "renin gene promotor", "value": "as least as potent as calcitriol"}, {"measurement": "potency in reducing the PAI level", "setting": "PAI-1", "value": "equally potent"}, {"measurement": "potency on stimulating the expression of 24(OH)ase relative to calcitriol", "setting": "24(OH)ase", "value": "less potent than calcitriol"}, {"measurement": "survival benefit for CKD patients relative to calcitriol", "setting": "[1]; CKD patients", "value": "more profound for paricalcitol over calcitriol"}, {"measurement": "potency in the clinical studies relative to calcitriol", "setting": "[1]; clinical studies", "value": "less potent than calcitriol"}]}]}
